Reference: US20230085307A1, “PYRIDAZINONE COMPOUND AND HERBICIDE” (NISSAN CHEMICAL CORPORATION, priority 2019, published 2023)

Assays:
[1] = system: southern crabgrass; experiment: Test Example 5: herbicidal effect by foliage application, plastic box (Table 20, symbol F); format: in vivo, southern crabgrass (Digitaria ciliaris); conditions: amount of applied herbicide 320 g/ha; foliage application after 14-day growth; evaluated three weeks after application
How it was run: (§1)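 Sow seeds spot-wise in sterilized diluvial soil; cover with ~1.5 cm soil. Grow 14 days in greenhouse, 25° C. to 30° C. Spray foliage with emulsion diluted to predetermined amount. Rate effect after 3 weeks.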

[2] = system: barnyard grass; experiment: Test Example 3: herbicidal effect by foliage application, Wagner pot (Table 18, symbol H); format: in vivo, barnyard grass (Echinochloa crus-galli); conditions: 320 g/ha
How it was run: (§2)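 Plants were sown in alluvial soil held under 0.1–0.5 cm standing water and grown 14 days in a greenhouse at 25–30 °C. An emulsifiable formulation, water-diluted to the set dose, was then sprayed onto the foliage, and effects were scored three weeks later using previously defined criteria.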

[3] = system: persian speedwell; experiment: Test Example 4: herbicidal effect by soil treatment (Table 19, symbol R); format: in vivo, Persian speedwell (Veronica persica); conditions: amount of applied herbicide 320 g/ha
How it was run: (§3)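 Soil-surface application: an emulsion agent diluted with water to the predetermined dose is sprayed uniformly over seeds lying under roughly 1.5 cm of sterilized diluvial soil. Boxes stay in a greenhouse at 25° C. to 30° C. Three weeks later, each species is graded on previously defined criteria.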

[4] = system: blackgrass; experiment: Test Example 4: herbicidal effect by soil treatment (Table 19, symbol J); format: in vivo, blackgrass (Alopecurus myosuroides); conditions: amount of applied herbicide 320 g/ha
How it was run: as §3

[5] = system: rice flat sedge; experiment: Test Example 3: herbicidal effect by foliage application, Wagner pot (Table 18, symbol E); format: in vivo, rice flat sedge (Cyperus iria); conditions: 320 g/ha
How it was run: as §2

[6] = system: redroot pigweed; experiment: Test Example 5: herbicidal effect by foliage application, plastic box (Table 20, symbol N); format: in vivo, redroot pigweed (Amaranthus retroflexus); conditions: amount of applied herbicide 320 g/ha; foliage application after 14-day growth; evaluated three weeks after application
How it was run: as §1

[7] = system: windgrass; experiment: Test Example 5: herbicidal effect by foliage application, plastic box (Table 20, symbol L); format: in vivo, windgrass (Apera spica-venti); conditions: amount of applied herbicide 320 g/ha; foliage application after 14-day growth; evaluated three weeks after application
How it was run: as §1

[8] = system: chickweed; experiment: Test Example 5: herbicidal effect by foliage application, plastic box (Table 20, symbol P); format: in vivo, common chickweed (Stellaria media); conditions: amount of applied herbicide 320 g/ha; foliage application after 14-day growth; evaluated three weeks after application
How it was run: as §1

[9] = system: late watergrass; experiment: Test Example 1: herbicidal activity, application before weed generation under submerged conditions (Table 16, symbol A); format: in vivo, late watergrass (Echinochloa oryzicola); conditions: amount of applied herbicide 320 g/ha
How it was run: (§4)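 Submerged Wagner pots (alluvial soil, 4 cm water) sown with weed seeds and planted with 2.5-leaf rice seedlings; emulsifiable concentrate diluted in water applied to water surface on sowing day. Held in greenhouse at 25-30 °C; injury scored 0-5 by herbicidal rate after three weeks.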

[10] = system: Italian ryegrass; experiment: Test Example 5: herbicidal effect by foliage application, plastic box (Table 20, symbol K); format: in vivo, Italian ryegrass (Lolium multiflorum); conditions: amount of applied herbicide 320 g/ha; foliage application after 14-day growth; evaluated three weeks after application
How it was run: as §1

[11] = system: persian speedwell; experiment: Test Example 5: herbicidal effect by foliage application, plastic box (Table 20, symbol R); format: in vivo, Persian speedwell (Veronica persica); conditions: amount of applied herbicide 320 g/ha; foliage application after 14-day growth; evaluated three weeks after application
How it was run: as §1

[12] = system: redroot pigweed; experiment: Test Example 4: herbicidal effect by soil treatment (Table 19, symbol N); format: in vivo, redroot pigweed (Amaranthus retroflexus); conditions: amount of applied herbicide 320 g/ha
How it was run: as §3

[13] = system: southern crabgrass; experiment: Test Example 4: herbicidal effect by soil treatment (Table 19, symbol F); format: in vivo, southern crabgrass (Digitaria ciliaris); conditions: amount of applied herbicide 320 g/ha
How it was run: as §3

[14] = system: velvetleaf; experiment: Test Example 5: herbicidal effect by foliage application, plastic box (Table 20, symbol M); format: in vivo, velvetleaf (Abutilon theophrasti); conditions: amount of applied herbicide 320 g/ha; foliage application after 14-day growth; evaluated three weeks after application
How it was run: as §1

[15] = system: barnyard grass; experiment: Test Example 4: herbicidal effect by soil treatment (Table 19, symbol H); format: in vivo, barnyard grass (Echinochloa crus-galli); conditions: amount of applied herbicide 320 g/ha
How it was run: as §3

[16] = system: green foxtail; experiment: Test Example 4: herbicidal effect by soil treatment (Table 19, symbol G); format: in vivo, green foxtail (Setaria viridis); conditions: amount of applied herbicide 320 g/ha
How it was run: as §3

[17] = system: chickweed; experiment: Test Example 4: herbicidal effect by soil treatment (Table 19, symbol P); format: in vivo, common chickweed (Stellaria media); conditions: amount of applied herbicide 320 g/ha
How it was run: as §3

[18] = system: wild oat; experiment: Test Example 5: herbicidal effect by foliage application, plastic box (Table 20, symbol I); format: in vivo, wild oat (Avena fatua); conditions: amount of applied herbicide 320 g/ha; foliage application after 14-day growth; evaluated three weeks after application
How it was run: as §1

[19] = system: wild oat; experiment: Test Example 4: herbicidal effect by soil treatment (Table 19, symbol I); format: in vivo, wild oat (Avena fatua); conditions: amount of applied herbicide 320 g/ha
How it was run: as §3

[20] = system: green foxtail; experiment: Test Example 5: herbicidal effect by foliage application, plastic box (Table 20, symbol G); format: in vivo, green foxtail (Setaria viridis); conditions: amount of applied herbicide 320 g/ha; foliage application after 14-day growth; evaluated three weeks after application
How it was run: as §1

[21] = system: lambsquarters; experiment: Test Example 4: herbicidal effect by soil treatment (Table 19, symbol O); format: in vivo, lambsquarters (Chenopodium album); conditions: amount of applied herbicide 320 g/ha
How it was run: as §3

[22] = system: lambsquarters; experiment: Test Example 5: herbicidal effect by foliage application, plastic box (Table 20, symbol O); format: in vivo, lambsquarters (Chenopodium album); conditions: amount of applied herbicide 320 g/ha; foliage application after 14-day growth; evaluated three weeks after application
How it was run: as §1

[23] = system: Italian ryegrass; experiment: Test Example 4: herbicidal effect by soil treatment (Table 19, symbol K); format: in vivo, Italian ryegrass (Lolium multiflorum); conditions: amount of applied herbicide 320 g/ha
How it was run: as §3

[24] = system: windgrass; experiment: Test Example 4: herbicidal effect by soil treatment (Table 19, symbol L); format: in vivo, windgrass (Apera spica-venti); conditions: amount of applied herbicide 320 g/ha
How it was run: as §3

[25] = system: velvetleaf; experiment: Test Example 4: herbicidal effect by soil treatment (Table 19, symbol M); format: in vivo, velvetleaf (Abutilon theophrasti); conditions: amount of applied herbicide 320 g/ha
How it was run: as §3

[26] = system: blackgrass; experiment: Test Example 5: herbicidal effect by foliage application, plastic box (Table 20, symbol J); format: in vivo, blackgrass (Alopecurus myosuroides); conditions: amount of applied herbicide 320 g/ha; foliage application after 14-day growth; evaluated three weeks after application
How it was run: as §1

[27] = system: Chinese sprangletop; experiment: Test Example 3: herbicidal effect by foliage application, Wagner pot (Table 18, symbol D); format: in vivo, chinese sprangletop (Leptochloa chinensis); conditions: 320 g/ha
How it was run: as §2

[28] = system: Japanese bulrush; experiment: Test Example 1: herbicidal activity, application before weed generation under submerged conditions (Table 16, symbol B); format: in vivo, Japanese bulrush (Schoenoplectus juncoides); conditions: amount of applied herbicide 320 g/ha
How it was run: as §4

[29] = system: barnyard grass; experiment: Test Example 5: herbicidal effect by foliage application, plastic box (Table 20, symbol H); format: in vivo, barnyard grass (Echinochloa crus-galli); conditions: amount of applied herbicide 320 g/ha; foliage application after 14-day growth; evaluated three weeks after application
How it was run: as §1

[30] = system: oval-leafed pondweed; experiment: Test Example 1: herbicidal activity, application before weed generation under submerged conditions (Table 16, symbol C); format: in vivo, oval-leafed pondweed (Monochoria vaginalis); conditions: amount of applied herbicide 320 g/ha
How it was run: as §4

[31] = system: Japanese bulrush; experiment: Test Example 2: herbicidal activity, application during weed generation under submerged conditions (Table 17, symbol B); format: in vivo, Japanese bulrush (Schoenoplectus juncoides); conditions: AAH 320 g/ha; application during weed generation, submerged conditions
Description: (§5) [Test Example 2] Herbicidal Activity Test by Application during Weed Generation under Submerged Conditions After alluvial soil was placed into 1/10000 are of Wagner pot, water was poured and mixed to form a submerged condition having a water depth of 4 cm. Seeds of late watergrass, Japanese bulrush, and oval-leafed pondweed were sowed in a mixed manner in the aforementioned pot, and the pot was placed in a greenhouse at 25° C. to 30° C. for growth of the plants. When late watergrass, Japanese bulrush, and oval-leafed pondweed were grown to one leaf stage to two leaf stage, the emulsion agent of the compound of the present invention prepared according to Formulation Example 2 was diluted with water so as to achieve a predetermined herbicide amount, and the diluted emulsion agent was applied to the surface of the water. Three weeks after the herbicide application, the effect of the herbicide on each plant was evaluated according to the criteria of Test Example 1.

[32] = system: late watergrass; experiment: Test Example 2: herbicidal activity, application during weed generation under submerged conditions (Table 17, symbol A); format: in vivo, late watergrass (Echinochloa oryzicola); conditions: AAH 320 g/ha; application during weed generation, submerged conditions
Description: as §5

[33] = system: oval-leafed pondweed; experiment: Test Example 2: herbicidal activity, application during weed generation under submerged conditions (Table 17, symbol C); format: in vivo, oval-leafed pondweed (Monochoria vaginalis); conditions: AAH 320 g/ha; application during weed generation, submerged conditions
Description: as §5

CCCC(=O)Oc1c(C)nn(C)c(=O)c1-c1c(-c2ccccc2OCC)sc2cc(Cl)c(Cl)cc12 [5-046]
Herbicidal effect by foliage application, F: southern crabgrass [1]: 3 (Herbicidal rate of 40% or more and less than 70%) | herbicidal effect on barnyard grass (H) [2]: 5 (Herbicidal rate of 90% or more (almost completely withered)) | R: persian speedwell, herbicidal effect grade [3]: 0 (Herbicidal rate of 5% or less (almost no effect)) | J: blackgrass, herbicidal effect grade [4]: 0 (Herbicidal rate of 5% or less (almost no effect)) | herbicidal effect on rice flat sedge (E) [5]: 5 (Herbicidal rate of 90% or more (almost completely withered)) | Herbicidal effect by foliage application, N: redroot pigweed [6]: 5 (Herbicidal rate of 90% or more (almost completely withered)) | Herbicidal effect by foliage application, L: windgrass [7]: 0 (Herbicidal rate of 5% or less (almost no effect)) | Herbicidal effect by foliage application, P: chickweed [8]: 5 (Herbicidal rate of 90% or more (almost completely withered)) | Herbicidal effect, A: late watergrass [9]: 0 (Herbicidal rate of 5% or less (almost no effect)) | Herbicidal effect by foliage application, K: Italian ryegrass [10]: 0 (Herbicidal rate of 5% or less (almost no effect)) | Herbicidal effect by foliage application, R: persian speedwell [11]: 4 (Herbicidal rate of 70% or more and less than 90%) | N: redroot pigweed, herbicidal effect grade [12]: 0 (Herbicidal rate of 5% or less (almost no effect)) | F: southern crabgrass, herbicidal effect grade [13]: 0 (Herbicidal rate of 5% or less (almost no effect)) | Herbicidal effect by foliage application, M: velvetleaf [14]: 5 (Herbicidal rate of 90% or more (almost completely withered)) | H: barnyard grass, herbicidal effect grade [15]: 0 (Herbicidal rate of 5% or less (almost no effect)) | G: green foxtail, herbicidal effect grade [16]: 0 (Herbicidal rate of 5% or less (almost no effect)) | P: chickweed, herbicidal effect grade [17]: 3 (Herbicidal rate of 40% or more and less than 70%) | Herbicidal effect by foliage application, I: wild oat [18]: 0 (Herbicidal rate of 5% or less (almost no effect)) | I: wild oat, herbicidal effect grade [19]: 0 (Herbicidal rate of 5% or less (almost no effect)) | Herbicidal effect by foliage application, G: green foxtail [20]: 3 (Herbicidal rate of 40% or more and less than 70%) | O: lambsquarters, herbicidal effect grade [21]: 0 (Herbicidal rate of 5% or less (almost no effect)) | Herbicidal effect by foliage application, O: lambsquarters [22]: 3 (Herbicidal rate of 40% or more and less than 70%) | K: Italian ryegrass, herbicidal effect grade [23]: 0 (Herbicidal rate of 5% or less (almost no effect)) | L: windgrass, herbicidal effect grade [24]: 0 (Herbicidal rate of 5% or less (almost no effect)) | M: velvetleaf, herbicidal effect grade [25]: 0 (Herbicidal rate of 5% or less (almost no effect)) | Herbicidal effect by foliage application, J: blackgrass [26]: 0 (Herbicidal rate of 5% or less (almost no effect)) | herbicidal effect on Chinese sprangletop (D) [27]: 3 (Herbicidal rate of 40% or more and less than 70%) | Herbicidal effect, B: Japanese bulrush [28]: 3 (Herbicidal rate of 40% or more and less than 70%) | Herbicidal effect by foliage application, H: barnyard grass [29]: 4 (Herbicidal rate of 70% or more and less than 90%) | Herbicidal effect, C: oval-leafed pondweed [30]: 0 (Herbicidal rate of 5% or less (almost no effect))

Cc1cc2sc(-c3ccc(OC(F)(F)F)cc3)c(-c3c(O)c(C)nn(C)c3=O)c2cc1C [5-109]
herbicidal effect rating, B: Japanese bulrush [31]: 0 (Herbicidal rate of 5% or less (almost no effect)) | herbicidal effect rating, A: late watergrass [32]: 2 (Herbicidal rate of 20% or more and less than 40%) | herbicidal effect rating, C: oval-leafed pondweed [33]: 0 (Herbicidal rate of 5% or less (almost no effect))
